Where “and” joins values, the source holds several entries; their conditions need not be identical. Identical values can stand only once.
What was measured:
T. brucei ADKIN = target: T1, T. brucei ADKIN (Trypanosoma brucei brucei, UniProt Q584S6); assay: ADKIN assay (phosphorylation by purified recombinant enzyme, HPLC); type: biochemical; parameters: Conc.9-MP: unit not given here; settings: for Conc.9-MP: TbAK assay; for Act (U/mg): TbAK
T1 sequence (Q584S6 1-345): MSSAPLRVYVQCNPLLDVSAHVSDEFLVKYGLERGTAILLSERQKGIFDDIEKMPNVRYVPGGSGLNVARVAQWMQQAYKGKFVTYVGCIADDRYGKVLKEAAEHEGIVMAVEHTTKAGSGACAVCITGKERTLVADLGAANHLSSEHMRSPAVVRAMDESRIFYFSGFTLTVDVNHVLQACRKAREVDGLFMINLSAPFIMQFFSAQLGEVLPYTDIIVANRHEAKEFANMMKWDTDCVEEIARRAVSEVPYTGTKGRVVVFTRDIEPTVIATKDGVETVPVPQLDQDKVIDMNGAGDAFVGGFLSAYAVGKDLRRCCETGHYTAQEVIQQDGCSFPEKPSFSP
Description: The T. brucei ADKIN enzyme was diluted in a buffer containing 0.05% (v/v) Tween-20, 50 mM KCl, 0.1 mM dithiothreitol, and 50 mM Tris-HCl, pH 7.5 (dilution buffer), prior to use in the assay. The final assay mixture contained 12.5 ng T. brucei ADKIN, a range between 50 and 1000 µM of nucleoside 9 (or 1000 µM deoxyadenosine in the control reaction), 100 mM KCl, 10 mM MgCl2, 0.5 mM ATP, 5 mM potassium phosphate and 50 mM Tris-HCl, pH 7.5. The assay was incubated at 37 °C for 30 min, and subsequently heated for 2 min at 100 °C to inactivate the enzyme, diluted with 2 volumes of water, centrifuged through a Nanosep 3k Omega filter and mixed 1:1:2 with water and mobile phase. The HPLC analysis was performed on a 2.1 × 150 mm ACE Excel C18 column using a mobile phase composition 4A:76B:20C (see nucleotide pool analysis, Supplementary Information for details). Using these conditions, consecutive samples could be loaded (Supplementary Fig. 12). After 4–5 samples, the column was washed with high percent A (80A:20C) to remove bound ADP and ATP before re-equilibrating the column to original conditions.

[1] = system: T. brucei Lister 427 cells; assay: Nucleotide pool analysis (HPLC); type: cell-based, Trypanosoma brucei; settings: 25 μM, versus untreated trypanosomes
Excerpt: (1 picture or pasted object on this page, not shown here)
The following primers were used: […]

[2] = Metabolic stability, mouse liver microsomes (phase I and II)
Description: Mouse, rat, and pooled human liver microsomes were purchased from a commercial source (Corning) and stored at -80 °C. NADPH generating system solutions A and B and UGT reaction mix solutions A and B (Corning) were kept at -20°C. The test compound and the reference compounds diclofenac (MW […]
microsomal stability assay was carried out based on the BD Biosciences Guidelines for Use (TF000017 Rev1.0) with minor adaptations. Metabolic stability of the compounds was studied through the CYP450 superfamily (phase I metabolism) by fortification with reduced nicotinamide adenine dinucleotide phosphate (NADPH) and through uridine glucuronosyl-transferase (UGT) enzymes (phase II metabolism) by fortification with uridine diphosphate glucuronic acid (UDPGA). For the CYP450 and other NADPH dependent enzymes, both compounds were incubated at 5 µM together with 0.5 mg mL-1 liver microsomes in potassium phosphate buffer in a reaction started by the addition of 1 mM NADPH […]
At these time points, 20 µL was withdrawn from the reaction mixture and 80 µL cold acetonitrile (ACN) containing the internal standard tolbutamide, was added to inactivate the enzymes and precipitate the proteins. The mixture was vortexed for 30 s and centrifuged at 4 °C for 5 min at 15,000 rpm. The supernatant was stored at -80°C until analysis. For the UGT enzymes, both compounds were incubated at 5 µM together with 0.5 mg mL-1 liver microsomes in a reaction started by the addition of 2 mM UDPGA cofactor. The corresponding loss of parent compound was determined using liquid chromatography (UPLC) (Waters AquityTM) coupled with tandem quadrupole mass spectrometry (MS²) (Waters XevoTM), equipped with an electrospray ionization (ESI) interface and operated in multiple reaction monitoring (MRM) mode. […]

Nc1ncnc2c1ccn2[C@@H]1O[C@H](CO)C[C@H]1O [Compound 9, 3’-deoxytubercidin]
Conc.9-MP (T. brucei ADKIN; substrate 50 µM, 3 series): 11.2244 and 8.987 and 9.705
Conc.9-MP (T. brucei ADKIN; substrate 100 µM): 19.1548 and 15.376 and 17.4986
Conc.9-MP (T. brucei ADKIN; substrate 250 µM): 33.0019 and 26.0907 and 28.4308
Conc.9-MP (T. brucei ADKIN; substrate 500 µM): 42.1131 and 37.0292 and 37.487
Conc.9-MP (T. brucei ADKIN; substrate 1000 µM): 45.1958 and 43.7663 and 38.425
Act (U/mg) (T. brucei ADKIN; substrate 50 µM, U = µmol/min): 1.497 U/mg and 1.198 U/mg and 1.294 U/mg
Act (U/mg) (T. brucei ADKIN; substrate 100 µM): 2.554 U/mg and 2.05 U/mg and 2.333 U/mg
Act (U/mg) (T. brucei ADKIN; substrate 250 µM): 4.4 U/mg and 3.479 U/mg and 3.791 U/mg
Act (U/mg) (T. brucei ADKIN; substrate 500 µM): 5.615 U/mg and 4.937 U/mg and 4.998 U/mg
Act (U/mg) (T. brucei ADKIN; substrate 1000 µM): 6.0261 U/mg and 5.836 U/mg and 5.123 U/mg
Vmax mg^−1 with TbADKIN (T. brucei ADKIN; mean and SE, n = 3): 0.116 ± 0.0048 U (µmol s^−1)
Vmax/mg with TbADKIN (original value) (T. brucei ADKIN; value before revision): 6.93 ± 0.29 U (µmol . min-1)
effect on intracellular purine and pyrimidine nucleotide pools [1]: did not cause any change in the balance or total quantity of intracellular purine and pyrimidine nucleotides
% analogue 9 remaining, EXP 1 / EXP 2 ([2]; microsomes, 0 min, 5 µM): 100%
% analogue 9 remaining, Mean ([2]; microsomes, 0 min, 5 µM): 100%
metabolic stability ([2]; s9, 0.5 h): metabolically stable
